# Reference: PubChem BioAssay AID2060885 (Molecular Pharmacology Branch, DTP, NCI, 2025)
# System: NCI-H23 complex spheroids with HUVEC/MSC, viability
# Test: Anticancer human tumor NCI-H23 cell line growth inhibition [RAS];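 note: spheroids exposed to compound for 7 days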;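 for viability, T/C: 100% = DMSO vehicle control viability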
# Details: for IC50: curve of first compound; for viability, T/C: stronger effect = lower value
# In short: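 Tumour cells grown as complex spheroids with HUVEC endothelial cells and mesenchymal stem cells, treated with RAS pathway inhibitor combinations. Each agent spans half-log steps from near clinical Cmax, or 10 microM where Cmax is unknown.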
# [1] = second compound 0.000949 µM, first compound 0.0316 µM
# [2] = second compound 0.000949 µM, first compound 0.1 µM
# [3] = second compound 0.000949 µM, first compound 0.316 µM
# [4] = second compound 0.000949 µM, first compound 1 µM
# [5] = second compound 0.000949 µM, first compound 3.16 µM
# [6] = second compound 0.000949 µM, first compound 10 µM
# [7] = second compound 0.003 µM, first compound 0.0316 µM
# [8] = second compound 0.003 µM, first compound 0.1 µM
# [9] = second compound 0.003 µM, first compound 0.316 µM
# [10] = second compound 0.003 µM, first compound 1 µM
# [11] = second compound 0.003 µM, first compound 3.16 µM
# [12] = second compound 0.003 µM, first compound 10 µM
# [13] = second compound 0.00949 µM, first compound 0.0316 µM
# [14] = second compound 0.00949 µM, first compound 0.1 µM
# [15] = second compound 0.00949 µM, first compound 0.316 µM
# [16] = second compound 0.00949 µM, first compound 1 µM
# [17] = second compound 0.00949 µM, first compound 3.16 µM
# [18] = second compound 0.00949 µM, first compound 10 µM
# [19] = second compound 0.03 µM, first compound 0.0316 µM
# [20] = second compound 0.03 µM, first compound 0.1 µM
# [21] = second compound 0.03 µM, first compound 0.316 µM
# [22] = second compound 0.03 µM, first compound 1 µM
# [23] = second compound 0.03 µM, first compound 3.16 µM
# [24] = second compound 0.03 µM, first compound 10 µM
# [25] = second compound 0.0949 µM, first compound 0.0316 µM
# [26] = second compound 0.0949 µM, first compound 0.1 µM
# [27] = second compound 0.0949 µM, first compound 0.316 µM
# [28] = second compound 0.0949 µM, first compound 1 µM
# [29] = second compound 0.0949 µM, first compound 3.16 µM
# [30] = second compound 0.0949 µM, first compound 10 µM
# [31] = second compound 0.3 µM, first compound 0.0316 µM
# [32] = second compound 0.3 µM, first compound 0.1 µM
# [33] = second compound 0.3 µM, first compound 0.316 µM
# [34] = second compound 0.3 µM, first compound 1 µM
# [35] = second compound 0.3 µM, first compound 3.16 µM
# [36] = second compound 0.3 µM, first compound 10 µM
smiles,measurement,setting,value
CC(=O)OC12COC1CC(O)C1(C)C(=O)C(O)C3=C(C)C(OC(=O)C(O)C(NC(=O)OC(C)(C)C)c4ccccc4)CC(O)(C(OC(=O)c4ccccc4)C21)C3(C)C (stereo unspecified) + CCn1c(-c2cccnc2C(C)OC)c2c3cc(ccc31)N1CCOC(CC(NC(=O)C(C(C)C)N(C)C(=O)C3(F)CCN(C(=O)C#CC(C)(C)N(C)C)CC3)C(=O)N3CCCC(N3)C(=O)OCC(C)(C)C2)C1,IC50,second compound 0.000949 µM,< 31.6 nM
same,IC50,second compound 0.003 µM,< 31.6 nM
same,IC50,second compound 0.00949 µM,< 31.6 nM
same,IC50,second compound 0.03 µM,< 31.6 nM
same,IC50,second compound 0.0949 µM,< 31.6 nM
same,IC50,second compound 0.3 µM,< 31.6 nM
same,"viability, T/C",[1],10.4%
same,"viability, T/C",[2],12.4%
same,"viability, T/C",[3],9.29%
same,"viability, T/C",[4],12.5%
same,"viability, T/C",[5],17.6%
same,"viability, T/C",[6],17.5%
same,"viability, T/C",[7],11.3%
same,"viability, T/C",[8],10.6%
same,"viability, T/C",[9],10.2%
same,"viability, T/C",[10],11.5%
same,"viability, T/C",[11],17%
same,"viability, T/C",[12],14.2%
same,"viability, T/C",[13],9.65%
same,"viability, T/C",[14],8.65%
same,"viability, T/C",[15],11.5%
same,"viability, T/C",[16],11%
same,"viability, T/C",[17],12.8%
same,"viability, T/C",[18],15.8%
same,"viability, T/C",[19],9.84%
same,"viability, T/C",[20],8.29%
same,"viability, T/C",[21],10.2%
same,"viability, T/C",[22],9.41%
same,"viability, T/C",[23],11.5%
same,"viability, T/C",[24],16.5%
same,"viability, T/C",[25],8.35%
same,"viability, T/C",[26],8.9%
same,"viability, T/C",[27],8.97%
same,"viability, T/C",[28],9.36%
same,"viability, T/C",[29],9.42%
same,"viability, T/C",[30],16.1%
same,"viability, T/C",[31],6.76%
same,"viability, T/C",[32],6.43%
same,"viability, T/C",[33],7.66%
same,"viability, T/C",[34],8.04%
same,"viability, T/C",[35],9.25%
same,"viability, T/C",[36],12.2%
NC1c2ccccc2OC12CCN(c1cnc3c(N4CCCc5ncccc54)n[nH]c3n1)CC2 (stereo unspecified) + CCn1c(-c2cccnc2C(C)OC)c2c3cc(ccc31)N1CCOC(CC(NC(=O)C(C(C)C)N(C)C(=O)C3(F)CCN(C(=O)C#CC(C)(C)N(C)C)CC3)C(=O)N3CCCC(N3)C(=O)OCC(C)(C)C2)C1,IC50,second compound 0.000949 µM,< 31.6 nM
same,IC50,second compound 0.003 µM,< 31.6 nM
same,IC50,second compound 0.00949 µM,< 31.6 nM
same,IC50,second compound 0.03 µM,< 31.6 nM
same,IC50,second compound 0.0949 µM,< 31.6 nM
same,IC50,second compound 0.3 µM,< 31.6 nM
same,"viability, T/C",[1],19.7%
same,"viability, T/C",[2],16.4%
same,"viability, T/C",[3],10.6%
same,"viability, T/C",[4],9.5%
same,"viability, T/C",[5],7.93%
same,"viability, T/C",[6],5.17%
same,"viability, T/C",[7],20.7%
same,"viability, T/C",[8],15.8%
same,"viability, T/C",[9],11.7%
same,"viability, T/C",[10],8.99%
same,"viability, T/C",[11],6.81%
same,"viability, T/C",[12],5.13%
same,"viability, T/C",[13],18.1%
same,"viability, T/C",[14],15%
same,"viability, T/C",[15],11.4%
same,"viability, T/C",[16],9.87%
same,"viability, T/C",[17],5.94%
same,"viability, T/C",[18],5.23%
same,"viability, T/C",[19],17.8%
same,"viability, T/C",[20],14.9%
same,"viability, T/C",[21],11.8%
same,"viability, T/C",[22],8.83%
same,"viability, T/C",[23],5.09%
same,"viability, T/C",[24],5.86%
same,"viability, T/C",[25],15%
same,"viability, T/C",[26],12.7%
same,"viability, T/C",[27],10.3%
same,"viability, T/C",[28],7.47%
same,"viability, T/C",[29],5.66%
same,"viability, T/C",[30],5.23%
same,"viability, T/C",[31],16.5%
same,"viability, T/C",[32],11.5%
same,"viability, T/C",[33],9.55%
same,"viability, T/C",[34],6.6%
same,"viability, T/C",[35],6.48%
same,"viability, T/C",[36],5.71%
Nc1ccn(C2OC(CO)C(O)C2(F)F)c(=O)n1 (stereo unspecified) + CCn1c(-c2cccnc2C(C)OC)c2c3cc(ccc31)N1CCOC(CC(NC(=O)C(C(C)C)N(C)C(=O)C3(F)CCN(C(=O)C#CC(C)(C)N(C)C)CC3)C(=O)N3CCCC(N3)C(=O)OCC(C)(C)C2)C1,IC50,second compound 0.000949 µM,< 3.16 nM
same,IC50,second compound 0.003 µM,< 3.16 nM
same,IC50,second compound 0.00949 µM,< 3.16 nM
same,IC50,second compound 0.03 µM,< 3.16 nM
same,IC50,second compound 0.0949 µM,< 3.16 nM
same,IC50,second compound 0.3 µM,< 3.16 nM
same,"viability, T/C","second compound 0.000949 µM, first compound 0.00316 µM",11.4%
same,"viability, T/C","second compound 0.000949 µM, first compound 0.01 µM",1.89%
same,"viability, T/C",[1],1.33%
same,"viability, T/C",[2],1.32%
same,"viability, T/C",[3],1.35%
same,"viability, T/C",[4],1.46%
same,"viability, T/C","second compound 0.003 µM, first compound 0.00316 µM",12.7%
same,"viability, T/C","second compound 0.003 µM, first compound 0.01 µM",1.78%
same,"viability, T/C",[7],1.61%
same,"viability, T/C",[8],1.5%
same,"viability, T/C",[9],1.63%
same,"viability, T/C",[10],2.39%
same,"viability, T/C","second compound 0.00949 µM, first compound 0.00316 µM",14.5%
same,"viability, T/C","second compound 0.00949 µM, first compound 0.01 µM",1.69%
same,"viability, T/C",[13],2.29%
same,"viability, T/C",[14],1.8%
same,"viability, T/C",[15],1.79%
same,"viability, T/C",[16],1.41%
same,"viability, T/C","second compound 0.03 µM, first compound 0.00316 µM",12.3%
same,"viability, T/C","second compound 0.03 µM, first compound 0.01 µM",1.86%
same,"viability, T/C",[19],1.31%
same,"viability, T/C",[20],1.39%
same,"viability, T/C",[21],1.75%
same,"viability, T/C",[22],1.29%
same,"viability, T/C","second compound 0.0949 µM, first compound 0.00316 µM",7.86%
same,"viability, T/C","second compound 0.0949 µM, first compound 0.01 µM",1.71%
same,"viability, T/C",[25],1.74%
same,"viability, T/C",[26],1.51%
same,"viability, T/C",[27],1.72%
same,"viability, T/C",[28],1.81%
same,"viability, T/C","second compound 0.3 µM, first compound 0.00316 µM",7.88%
same,"viability, T/C","second compound 0.3 µM, first compound 0.01 µM",1.67%
same,"viability, T/C",[31],1.78%
same,"viability, T/C",[32],1.28%
same,"viability, T/C",[33],1.59%
same,"viability, T/C",[34],1.54%
